Measurements reported in US20210290576A1, “STRUCTURALLY MODIFIED FATTY ACIDS FOR IMPROVING GLYCEMIC CONTROL AND TREATING INFLAMMATORY BOWEL DISEASE” (NORTHSEA THERAPEUTICS B.V., priority 2018, published 2021).
Like-named read-outs stand apart in the source and are kept apart here.

Assays:
active GLP-1 = experiment: Active GLP-1 during an oral glucose tolerance test (OGTT) and at 24 h in lean male SPD rats; type: in vivo, Sprague-Dawley (SPD) rats
Description: (§1) Evaluation of the Acute Effects of Compound a and Compound B Upon Active GLP-1 wconcentrations during an oral glucose tolerance test (OGTT) and at 24 h in lean male SPD Rats
(§2) To establish the acute effects of oral administration of Compound A and Compound B upon active GLP-1 and insulin concentrations, lean (about 300 g) male Sprague-Dawley (SPD) rats were divided into groups (n=6-8) and fed 74 and 84 mg/kg body weight of Compound A or Compound B respectively, either with or without concurrent administration of a dipeptidyl peptidase 4 (DPP-4) inhibitor 60 minutes prior to an oral glucose tolerance test (OGTT) as outlined below. Parallel groups receiving either corn oil alone (corn oil+vehicle, n=10) or corn oil and a DPP-4 inhibitor (“DPP-4 i”) (corn oil+(DPP-4 i), n=10) were included as controls. The DPP-4 inhibitor was linagliptin.
(§3) A second oral dose of 74 and 84 mg/kg bodyweight of Compound A or Compound B respectively was administered at 240 minutes and ad lib feeding was initiated. A second dose of DPP-4 inhibitor was administered at 480 mins prior to lights out. Blood samples were collected at 24 h for measurement of active GLP-1 and insulin. All values are mean, figures depict mean values (SEM).

plasma insulin = experiment: Plasma insulin at 24 h after OGTT in lean male SPD rats; type: in vivo, Sprague-Dawley (SPD) rats; details: non-significant
Description: as §1, §2, §3

[1] = test system: ob/ob mice, T2DM rodent model; experiment: Glucose tolerance after 21-day treatment in high-fat diet fed ob/ob mice; type: in vivo; details: 112 mg/kg once daily via diet, 21 days
Description: This study was carried out to assess the effects of chronic treatment with Compound B or Compound A on glucose tolerance in a T2DM rodent model.
For assessing the effects of Compound A, ob/ob mice were fed a high-fat diet (comprising 2% cholesterol, 40% fat (containing 18% trans-fatty acids), 20% fructose) for 15 weeks starting at age 5 weeks. […] After 21 days the mice received a 2 g/kg oral glucose load. After the oral glucose load, plasma glucose was measured at multiple time points from 0-240 minutes.

[2] = test system: ob/ob mice, rodent model of T2DM; experiment: Oral glucose (2 g/kg) tolerance test after 5 weeks of treatment in ob/ob mice; type: in vivo; details: 15, 45 and 135 mg/kg bw/d
Description: Mice were fed a standard low-fat (7% w/w fat) diet. After 4-weeks, the mice were fasted for 4 hours and the effects of Compound A were assessed. Assessment of the effects of Compound A included basal levels of blood glucose, plasma insulin, HbA1c levels, and homeostatic model assessment of insulin resistance (HOMA-IR). HOMA-IR is an assessment of insulin resistance and is calculated by the following formula: fasting insulin (micro U/L)×fasting glucose […]/22.5.
After 5 weeks, an oral glucose (2 g/kg) tolerance test was performed after a 4 hour fast.

atherogenic lipids [3] = details: humans; cited from earlier work
atherogenic lipids [4] = details: APOE*3.CETP mice; cited from earlier work

Row | Structure (SMILES) | active GLP-1 concentrations at 24 h versus corn oil+vehicle (active GLP-1; in combination with DPP4 inhibitor (linagliptin), Compound A 74 mg/kg, Compound B 84 mg/kg, two oral doses) | increase of plasma insulin concentrations at 24 h versus corn oil+vehicle and corn oil+DPP4 inhibitor (plasma insulin; compound alone) [%] | increase of plasma insulin concentrations at 24 h versus corn oil+vehicle and corn oil+DPP4 inhibitor (plasma insulin; in combination with DPP4 inhibitor (linagliptin)) [%] | glucose tolerance compared to vehicle ([1]; 2 g/kg oral glucose load) | AUC glucose ([1]; p<0.01) | glucose levels in oral glucose tolerance test [2] | atherogenic lipids (atherogenic lipids [3]) | atherogenic lipids (atherogenic lipids [4]) | active GLP-1 (AUC 0-60 mins) versus corn oil alone (active GLP-1; corn oil+DPP4 inhibitor alone) | active GLP-1 concentrations at 24 h versus corn oil alone (active GLP-1; corn oil+DPP4 inhibitor alone)
1 | CC/C=C\C/C=C\C/C=C\C/C=C\C/C=C\CCCCOC(CC)C(=O)O (stereo not shown) [Compound A, 2-(((5Z,8Z,11Z,14Z,17Z)-icosa-5,8,11,14,17-pentaen-1-yl)oxy)butanoic acid] | significantly (p<0.05) increased | 25 | 25 | significantly improved glucose tolerance from 15 minutes through 90 minutes | significantly reduced | dose-dependent response in lowering glucose levels | significantly reduce atherogenic lipids | significantly reduce atherogenic lipids | – | –
2 | CC#CCn1c(N2CCC[C@@H](N)C2)nc2c1c(=O)n(Cc1nc(C)c3ccccc3n1)c(=O)n2C [DPP4 inhibitor, linagliptin, reference compound] | – | – | – | – | – | – | – | – | no significant effect | no significant effect
